Consider 23 compounds from US9255100B2 (BAYER INTELLECTUAL PROPERTY GMBH, priority 2010, dated 2016).

Where only a bound is given, the exact number is not on record here.

The assay deals with T1, N-terminally GST-tagged human full length recombinant Mps-1 kinase (Homo sapiens, UniProt P33981).
T1 construct: N-terminally GST-tagged human full length recombinant Mps-1 kinase; purchased Invitrogen, Karslruhe, Germany PV4071
T1 sequence (P33981 1-857): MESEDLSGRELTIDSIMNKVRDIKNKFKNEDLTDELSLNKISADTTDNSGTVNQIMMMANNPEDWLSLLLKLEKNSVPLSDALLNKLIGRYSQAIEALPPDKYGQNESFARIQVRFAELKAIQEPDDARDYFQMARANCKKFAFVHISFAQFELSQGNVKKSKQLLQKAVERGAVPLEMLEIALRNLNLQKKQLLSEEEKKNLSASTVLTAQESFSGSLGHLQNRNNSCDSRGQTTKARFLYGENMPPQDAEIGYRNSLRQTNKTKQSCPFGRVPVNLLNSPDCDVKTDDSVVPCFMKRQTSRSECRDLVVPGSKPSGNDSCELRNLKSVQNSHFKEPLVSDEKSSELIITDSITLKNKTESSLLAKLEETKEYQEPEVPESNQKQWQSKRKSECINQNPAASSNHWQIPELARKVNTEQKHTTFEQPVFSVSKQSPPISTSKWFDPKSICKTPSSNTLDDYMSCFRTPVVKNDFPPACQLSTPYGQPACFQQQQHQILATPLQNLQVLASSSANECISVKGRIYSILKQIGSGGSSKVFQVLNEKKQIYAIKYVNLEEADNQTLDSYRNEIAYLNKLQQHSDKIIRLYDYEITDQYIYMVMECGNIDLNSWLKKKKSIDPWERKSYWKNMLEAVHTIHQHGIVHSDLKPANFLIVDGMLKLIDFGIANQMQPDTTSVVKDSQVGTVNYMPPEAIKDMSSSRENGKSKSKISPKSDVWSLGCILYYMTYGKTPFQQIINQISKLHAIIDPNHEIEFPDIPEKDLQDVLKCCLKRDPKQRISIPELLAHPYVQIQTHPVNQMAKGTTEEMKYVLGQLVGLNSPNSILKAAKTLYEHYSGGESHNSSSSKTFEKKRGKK
In words: Mps-1 kinase assay (TR-FRET). In kind it is biochemical. Particulars: Mps1 IC50 [nM], 10 μM ATP, 1 μM peptide substrate, 60 min at 22° C. In short, it runs like this: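 TR-FRET signal between a Europium anti-phospho-Ser/Thr antibody and streptavidin-XLent reported phosphorylation of a biotinylated peptide by GST-tagged full-length Mps-1. Enzyme was near 1 nM final, chosen per lot for linearity.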
(TR-FRET usually uses a lanthanide donor and a delayed reading to cut background.)
The IC50 is the concentration that inhibits the measured activity by half. Take `Cc1cc(-c2cnc3c(NCCC(F)(F)F)cc(Oc4ccccc4O)nn23)ccc1C(=O)NC1CC1` [Example 280, N-cyclopropyl-4-{6-(2-hydroxyphenoxy)-8-[(3,3,3-trifluoropropyl)amino]imidazo[1,2-b]pyridazin-3-yl}-2-methylbenzamide]: the IC50 turned out to be 0.1 nM.

`Cc1cc(-c2cnc3c(NCC4CCSCC4)cc(Oc4cccc(F)c4)nn23)ccc1C(=O)NC1CC1` [Example 281, N-cyclopropyl-4-{6-(3-fluorophenoxy)-8-[(tetrahydro-2H-thiopyran-4-ylmethyl)amino]imidazo[1,2-b]pyridazin-3-yl}-2-methylbenzamide]: the IC50 worked out at 0.3 nM.

In the case of `Cc1cc(F)cc(Oc2cc(NCC3CCSCC3)c3ncc(-c4ccc(C(=O)NC5CC5)c(C)c4)n3n2)c1` [Example 282, N-cyclopropyl-4-{6-(3-fluoro-5-methylphenoxy)-8-[(tetrahydro-2H-thiopyran-4-ylmethyl)amino]imidazo[1,2-b]pyridazin-3-yl}-2-methylbenzamide], the half-maximal inhibitory concentration (IC50) was 0.4 nM.

On to `Cc1cc(-c2cnc3c(NCC4CCSCC4)cc(Oc4ccccc4F)nn23)ccc1C(=O)NC1CC1` [Example 283, N-cyclopropyl-4-{6-(2-fluorophenoxy)-8-[(tetrahydro-2H-thiopyran-4-ylmethyl)amino]imidazo[1,2-b]pyridazin-3-yl}-2-methylbenzamide], for which the IC50 worked out at 0.3 nM.

As for `Cc1cc(-c2cnc3c(NCC4CCSCC4)cc(Sc4ccccc4)nn23)ccc1C(=O)NC1CC1` [Example 284, N-cyclopropyl-2-methyl-4-{6-(phenylsulfanyl)-8-[(tetrahydro-2H-thiopyran-4-ylmethyl)amino]imidazo[1,2-b]pyridazin-3-yl}benzamide], the concentration for half-maximal inhibition (IC50) turned out to be 0.4 nM.

As to `Cc1cc(-c2cnc3c(NCC4CCSCC4)cc(Sc4cccc(F)c4)nn23)ccc1C(=O)NC1CC1` [Example 285, N-cyclopropyl-4-{6-[(3-fluorophenyl)sulfanyl]-8-[(tetrahydro-2H-thiopyran-4-ylmethyl)amino]imidazo[1,2-b]pyridazin-3-yl}-2-methylbenzamide], the IC50 stood at 0.4 nM.

As for `Cc1cc(F)cc(Sc2cc(NCC3CCSCC3)c3ncc(-c4ccc(C(=O)NC5CC5)c(C)c4)n3n2)c1` [Example 286, N-cyclopropyl-4-{6-[(3-fluoro-5-methylphenyl)sulfanyl]-8-[(tetrahydro-2H-thiopyran-4-ylmethyl)amino]imidazo[1,2-b]pyridazin-3-yl}-2-methylbenzamide], the half-inhibitory concentration (IC50) came out at 0.4 nM.

As to `Cc1cc(-c2cnc3c(NCC4CCSCC4)cc(Sc4cccc(O)c4)nn23)ccc1C(=O)NC1CC1` [Example 287, N-cyclopropyl-4-{6-[(3-hydroxyphenyl)sulfanyl]-8-[(tetrahydro-2H-thiopyran-4-ylmethyl)amino]imidazo[1,2-b]pyridazin-3-yl}-2-methylbenzamide], the IC50 worked out at 0.3 nM.

`Cc1cc(-c2cnc3c(NCC4CCSCC4)cc(Sc4ccccc4O)nn23)ccc1C(=O)NC1CC1` [Example 289, N-cyclopropyl-4-{6-[(2-hydroxyphenyl)sulfanyl]-8-[(tetrahydro-2H-thiopyran-4-ylmethyl)amino]imidazo[1,2-b]pyridazin-3-yl}-2-methylbenzamide]: the IC50 came to 0.2 nM.

On to `Cc1cc(-c2cnc3c(NCC4CCSCC4)cc(Oc4ccc(F)cc4)nn23)ccc1C(=O)NC1CC1` [Example 290, N-cyclopropyl-4-{6-(4-fluorophenoxy)-8-[(tetrahydro-2H-thiopyran-4-ylmethyl)amino]imidazo[1,2-b]pyridazin-3-yl}-2-methylbenzamide], for which the IC50 came to 0.3 nM.

Regarding `Cc1cc(-c2cnc3c(NCC4CCSCC4)cc(Oc4ccc(Cl)c(F)c4)nn23)ccc1C(=O)NC1CC1` [Example 291, 4-{6-(4-chloro-3-fluorophenoxy)-8-[(tetrahydro-2H-thiopyran-4-ylmethyl)amino]imidazo[1,2-b]pyridazin-3-yl}-N-cyclopropyl-2-methylbenzamide], the IC50 came to 0.6 nM.

For `Cc1cc(-c2cnc3c(NCC4CCSCC4)cc(Oc4ccc(Cl)cc4)nn23)ccc1C(=O)NC1CC1` [Example 292, 4-{6-(4-chlorophenoxy)-8-[(tetrahydro-2H-thiopyran-4-ylmethyl)amino]imidazo[1,2-b]pyridazin-3-yl}-N-cyclopropyl-2-methylbenzamide], the half-maximal inhibitory concentration (IC50) was determined as 0.5 nM.

For `Cc1cc(-c2cnc3c(NCC4CCSCC4)cc(Oc4cccc(F)c4F)nn23)ccc1C(=O)NC1CC1` [Example 293, N-cyclopropyl-4-{6-(2,3-difluorophenoxy)-8-[(tetrahydro-2H-thiopyran-4-ylmethyl)amino]imidazo[1,2-b]pyridazin-3-yl}-2-methylbenzamide], the IC50 was 0.4 nM.

In the case of `Cc1cc(-c2cnc3c(NCC4CCS(=O)(=O)CC4)cc(Oc4ccc(Cl)cc4)nn23)ccc1C(=O)NC1CC1` [Example 294A, 4-[6-(4-chlorophenoxy)-8-{[(1,1-dioxidotetrahydro-2H-thiopyran-4-yl)methyl]amino}imidazo[1,2-b]pyridazin-3-yl]-N-cyclopropyl-2-methylbenzamide], the 50% inhibitory concentration (IC50) stood at 0.3 nM.

With `Cc1cc(-c2cnc3c(NCC4CCS(=O)(=O)CC4)cc(Oc4ccc(F)cc4)nn23)ccc1C(=O)NC1CC1` [Example 295A, N-cyclopropyl-4-[8-{[(1,1-dioxidotetrahydro-2H-thiopyran-4-yl)methyl]amino}-6-(4-fluorophenoxy)imidazo[1,2-b]pyridazin-3-yl]-2-methylbenzamide], the half-maximal inhibitory concentration (IC50) is 0.4 nM.

Consider `Cc1cc(-c2cnc3c(NCC4CCS(=O)(=O)CC4)cc(Oc4cccnc4)nn23)ccc1C(=O)NC1CC1` [Example 296A, N-cyclopropyl-4-[8-{[(1,1-dioxidotetrahydro-2H-thiopyran-4-yl)methyl]amino}-6-(pyridin-3-yloxy)imidazo[1,2-b]pyridazin-3-yl]-2-methylbenzamide], for which the half-maximal inhibitory concentration (IC50) was determined as 0.5 nM.

Take `Cc1cc(-c2cnc3c(NC[C@H]4CC[S@@+]([O-])CC4)cc(Oc4cccnc4)nn23)ccc1C(=O)NC1CC1` [Example 296B, N-cyclopropyl-2-methyl-4-[8-({[(cis)-1-oxidotetrahydro-2H-thiopyran-4-yl]methyl}amino)-6-(pyridin-3-yloxy)imidazo[1,2-b]pyridazin-3-yl]benzamide]: the IC50 came out at 0.5 nM.

For `Cc1cc(-c2cnc3c(NC[C@H]4CC[S@+]([O-])CC4)cc(Oc4cccnc4)nn23)ccc1C(=O)NC1CC1` [Example 296C, N-cyclopropyl-2-methyl-4-[8-({[(trans)-1-oxidotetrahydro-2H-thiopyran-4-yl]methyl}amino)-6-(pyridin-3-yloxy)imidazo[1,2-b]pyridazin-3-yl]benzamide], the IC50 came out at 0.2 nM.

Take `Cc1cc(-c2cnc3c(NCC4CCS(=O)(=O)CC4)cc(Oc4ccccc4F)nn23)ccc1C(=O)NC1CC1` [Example 297, N-cyclopropyl-4-[8-{[(1,1-dioxidotetrahydro-2H-thiopyran-4-yl)methyl]amino}-6-(2-fluorophenoxy)imidazo[1,2-b]pyridazin-3-yl]-2-methylbenzamide]: the IC50 was found to be 0.1 nM.

Take `Cc1cc(-c2cnc3c(NCC4CCS(=O)(=O)CC4)cc(Oc4cccc(F)c4)nn23)ccc1C(=O)NC1CC1` [Example 298A, N-cyclopropyl-4-[8-{[(1,1-dioxidotetrahydro-2H-thiopyran-4-yl)methyl]amino}-6-(3-fluorophenoxy)imidazo[1,2-b]pyridazin-3-yl]-2-methylbenzamide]: the concentration for half-maximal inhibition (IC50) was < 0.1 nM.

As for `Cc1cc(-c2cnc3c(NCC(C)(C)O)cc(-c4ccc(F)cc4CO)nn23)ccc1C(=O)NC1CC1` [Example 299, N-cyclopropyl-4-{6-[4-fluoro-2-(hydroxymethyl)phenyl]-8-[(2-hydroxy-2-methylpropyl)amino]imidazo[1,2-b]pyridazin-3-yl}-2-methylbenzamide], the IC50 stood at 6.9 nM.

As to `Cc1cc(-c2cnc3c(NCC(C)(C)O)cc(Sc4ccc(F)c(F)c4)nn23)ccc1C(=O)NC1CC1` [Example 300, N-cyclopropyl-4-{6-[(3,4-difluorophenyl)sulfanyl]-8-[(2-hydroxy-2-methylpropyl)amino]imidazo[1,2-b]pyridazin-3-yl}-2-methylbenzamide], the IC50 is 0.8 nM.

`Cc1cc(-c2cnc3c(NCC4CCS(=O)(=O)CC4)cc(Sc4cccc(F)c4)nn23)ccc1C(=O)NC1CC1` [Example 301, N-cyclopropyl-4-(8-{[(1,1-dioxidotetrahydro-2H-thiopyran-4-yl)methyl]amino}-6-[(3-fluorophenyl)sulfanyl]imidazo[1,2-b]pyridazin-3-yl)-2-methylbenzamide]: the half-inhibitory concentration (IC50) was determined as 0.2 nM.
